# How the values were obtained:
# [1] = Example 2.1 rhamnolipid precipitation, filtration, centrifugation: lead; conditions: for Treatment 2: Rhamnolipid and Filtration Cf / Treatment 3: Rhamnolipid and Centrifugation Cc / Treatment 1: Rhamnolipid Only Cr: lead concentration after treatment
# Description: (§1) Structural variants of synthetic glycolipids were used to show the effect of the number and length of the hydrophobic tail(s) on rhamnolipid as a chemical precipitant. […] Solutions (10 mM) were made using nanopure water (≥18 MΩ-cm) then adjusted to a pH of 6.9±0.05 with HNO3 and NaOH. These solutions were made in advance and stored in the cold room for up to one month. They were brought to room temperature before each experiment.
# (§2) Three metals were tested for binding with rhamnolipid. Lead as […] (Fisher Scientific, Waltham, MA, 99% purity), was chosen to represent a metal with high rhamnolipid-metal conditional stability constant; lanthanum as La(NO3)3 6(H2O) (Sigma-Aldrich, St. Louis, MO, 99.99% purity) was chosen as a representative REE; and magnesium as Mg(NO3)2 6(H2O) (Sigma-Aldrich, St. Louis, MO, 99% purity) was chosen to represent a metal with a low rhamnolipid-metal conditional stability constant (Hogan et al., 2017). Metal solutions (5 mM) were made using nanopure water (≥18 MΩ-cm) in 20 ml glass scintillation vials. All solutions were used within 15 min to ensure minimal adsorption to the glass vial.
# (§3) Three glycolipid-based treatments were evaluated to remove metal from solution: (1) the addition of glycolipid with no further treatment (gravitational precipitation), (2) the addition of a glycolipid followed by filtration or (3) the addition of a glycolipid followed by centrifugation. Each metal (Pb, La, and Mg) was evaluated separately with each of the glycolipid structures. For each experiment, a metal solution was mixed with a glycolipid solution in a 1.7 ml reaction tube at varying molar ratios of glycolipid to metal: 0:1 (glycolipid-free control), 2:1, 5:1, and 10:1. The reactions were mixed in the order of nanopure water (≥18 MΩ-cm), glycolipid solution (10 mM), then metal solution (5 mM). The metal and glycolipid solutions were continuously stirred as they were aliquoted into the reaction tubes. The experiment was performed in triplicate.
# (§4) The reaction tubes were mixed overnight (16 to 24 h) and then three samples were collected from each tube to measure the effect of each of the three treatments: a glycolipid only treatment sample, a filtration treatment sample, and a centrifugation treatment sample. Briefly, for the glycolipid only treatment samples all tubes were vortexed for approximately 5 sec immediately before removing 0.1 ml into a dilution tube of 2% trace metal grade nitric acid (12 to 14 ml) to minimize the settling of particles. For the filtration samples each reaction tube was vortexed for 5 sec and then a 0.6 ml aliquot was collected with a 1 ml syringe. A GHP acrodisc disk filter (hydrophilic polypropylene membrane, 0.45 μm pore size, 25 mm disc diameter) from Pall Life Sciences (Port Washington, New York) was then placed onto the end of the syringe and the solution was pushed through the filter. The void space in the disk filter holds approximately 0.5 ml, therefore around 0.1 ml of filtrate was collected into a dilution tube. For the centrifugation sample, the remaining solution was centrifuged at 10,000 RCF for 15 min. Approximately 0.1 ml of the supernatant was aliquoted into a dilution tube. Following collection, all samples were taken for metal analysis using ICP-MS.
# [2] = Example 2.1 rhamnolipid precipitation, filtration, centrifugation: lanthanum; conditions: for Treatment 2: Rhamnolipid and Filtration Cf / Treatment 3: Rhamnolipid and Centrifugation Cc / Treatment 1: Rhamnolipid Only Cr: lanthanum concentration after treatment
# Description: as §1, §2, §3, §4
# [3] = Example 2.1 rhamnolipid precipitation, filtration, centrifugation: magnesium; conditions: for Treatment 2: Rhamnolipid and Filtration Cf / Treatment 3: Rhamnolipid and Centrifugation Cc / Treatment 1: Rhamnolipid Only Cr: magnesium concentration after treatment; for Treatment 1: Rhamnolipid Only (Rr) efficiency of removal / Treatment 2: Rhamnolipid and Filtration (Rf) efficiency of removal / Treatment 3: Rhamnolipid and Centrifugation (Rc) efficiency of removal: magnesium
# Description: as §1, §2, §3, §4
smiles,measurement,setting,value
CCCC(CC(=O)O)OC1O[C@@H](C)[C@H](O)[C@@H](O)[C@H]1O (stereo partly drawn) [Rha C6],Treatment 2: Rhamnolipid and Filtration Cf,[1]; molar ratio 2 to 1,0.115 ± 0.022 mmol/L
same,Treatment 3: Rhamnolipid and Centrifugation Cc,[1]; molar ratio 2 to 1,0.313 ± 0.003 mmol/L
same,Treatment 1: Rhamnolipid Only Cr,[1]; molar ratio 5 to 1,0.329 ± 0.014 mmol/L
same,Treatment 2: Rhamnolipid and Filtration Cf,[1]; molar ratio 5 to 1,0.046 ± 0.017 mmol/L
same,Treatment 3: Rhamnolipid and Centrifugation Cc,[1]; molar ratio 5 to 1,0.322 ± 0.004 mmol/L
same,Treatment 1: Rhamnolipid Only Cr,[1]; molar ratio 10 to 1,0.316 ± 0.008 mmol/L
same,Treatment 2: Rhamnolipid and Filtration Cf,[1]; molar ratio 10 to 1,0.119 ± 0.018 mmol/L
same,Treatment 3: Rhamnolipid and Centrifugation Cc,[1]; molar ratio 10 to 1,0.323 ± 0.005 mmol/L
same,Treatment 1: Rhamnolipid Only Cr,[1]; molar ratio rhamnolipid:lead 2 to 1,0.323 ± 0.005 mmol/L
same,Treatment 2: Rhamnolipid and Filtration (Rf) efficiency of removal,"[1]; lead, molar ratio 2 to 1",(64.0%)
same,Treatment 3: Rhamnolipid and Centrifugation (Rc) efficiency of removal,"[1]; lead, molar ratio 2 to 1",(2.2%)
same,Treatment 2: Rhamnolipid and Filtration (Rf) efficiency of removal,"[1]; lead, molar ratio 5 to 1",(85.8%)
same,Treatment 1: Rhamnolipid Only (Rr) efficiency of removal,"[1]; lead, molar ratio 10 to 1",(1.4%)
same,Treatment 2: Rhamnolipid and Filtration (Rf) efficiency of removal,"[1]; lead, molar ratio 10 to 1",(62.7%)
same,Treatment 2: Rhamnolipid and Filtration Cf,[2]; molar ratio 2 to 1,0.143 ± 0.062 mmol/L
same,Treatment 3: Rhamnolipid and Centrifugation Cc,[2]; molar ratio 2 to 1,0.324 ± 0.018 mmol/L
same,Treatment 1: Rhamnolipid Only Cr,[2]; molar ratio 5 to 1,0.282 ± 0.026 mmol/L
same,Treatment 2: Rhamnolipid and Filtration Cf,[2]; molar ratio 5 to 1,0.106 ± 0.026 mmol/L
same,Treatment 3: Rhamnolipid and Centrifugation Cc,[2]; molar ratio 5 to 1,0.320 ± 0.024 mmol/L
same,Treatment 1: Rhamnolipid Only Cr,[2]; molar ratio 10 to 1,0.332 ± 0.040 mmol/L
same,Treatment 2: Rhamnolipid and Filtration Cf,[2]; molar ratio 10 to 1,0.114 ± 0.064 mmol/L
same,Treatment 3: Rhamnolipid and Centrifugation Cc,[2]; molar ratio 10 to 1,0.294 ± 0.010 mmol/L
same,Treatment 1: Rhamnolipid Only Cr,[2]; molar ratio rhamnolipid:lanthanum 2 to 1,0.325 ± 0.026 mmol/L
same,Treatment 2: Rhamnolipid and Filtration (Rf) efficiency of removal,"[2]; lanthanum, molar ratio 2 to 1",(51.8%)
same,Treatment 1: Rhamnolipid Only (Rr) efficiency of removal,"[2]; lanthanum, molar ratio 5 to 1",(5.2%)
same,Treatment 2: Rhamnolipid and Filtration (Rf) efficiency of removal,"[2]; lanthanum, molar ratio 5 to 1",(64.4%)
same,Treatment 2: Rhamnolipid and Filtration (Rf) efficiency of removal,"[2]; lanthanum, molar ratio 10 to 1",(61.6%)
same,Treatment 3: Rhamnolipid and Centrifugation (Rc) efficiency of removal,"[2]; lanthanum, molar ratio 10 to 1",(1.1%)
same,Treatment 2: Rhamnolipid and Filtration Cf,[3]; molar ratio 2 to 1,0.202 ± 0.016 mmol/L
same,Treatment 3: Rhamnolipid and Centrifugation Cc,[3]; molar ratio 2 to 1,0.265 ± 0.010 mmol/L
same,Treatment 1: Rhamnolipid Only Cr,[3]; molar ratio 5 to 1,0.248 ± 0.013 mmol/L
same,Treatment 2: Rhamnolipid and Filtration Cf,[3]; molar ratio 5 to 1,0.178 ± 0.020 mmol/L
same,Treatment 3: Rhamnolipid and Centrifugation Cc,[3]; molar ratio 5 to 1,0.255 ± 0.001 mmol/L
same,Treatment 1: Rhamnolipid Only Cr,[3]; molar ratio 10 to 1,0.258 ± 0.011 mmol/L
same,Treatment 2: Rhamnolipid and Filtration Cf,[3]; molar ratio 10 to 1,0.165 ± 0.001 mmol/L
same,Treatment 3: Rhamnolipid and Centrifugation Cc,[3]; molar ratio 10 to 1,0.272 ± 0.016 mmol/L
same,Treatment 1: Rhamnolipid Only Cr,[3]; molar ratio rhamnolipid:magnesium 2 to 1,0.247 ± 0.014 mmol/L
same,Treatment 1: Rhamnolipid Only (Rr) efficiency of removal,[3]; molar ratio 2 to 1,(7.6%)
same,Treatment 2: Rhamnolipid and Filtration (Rf) efficiency of removal,[3]; molar ratio 2 to 1,(24.5%)
same,Treatment 3: Rhamnolipid and Centrifugation (Rc) efficiency of removal,[3]; molar ratio 2 to 1,(0.9%)
same,Treatment 1: Rhamnolipid Only (Rr) efficiency of removal,[3]; molar ratio 5 to 1,(7.3%)
same,Treatment 2: Rhamnolipid and Filtration (Rf) efficiency of removal,[3]; molar ratio 5 to 1,(33.4%)
same,Treatment 3: Rhamnolipid and Centrifugation (Rc) efficiency of removal,[3]; molar ratio 5 to 1,(4.9%)
same,Treatment 1: Rhamnolipid Only (Rr) efficiency of removal,[3]; molar ratio 10 to 1,(3.6%)
same,Treatment 2: Rhamnolipid and Filtration (Rf) efficiency of removal,[3]; molar ratio 10 to 1,(38.2%)

# From patent US20240182513A1, “SEPARATION OF METAL IONS FROM A SAMPLE USING GLYCOLIPIDS” (ARIZONA BOARD OF REGENTS ON BEHALF OF THE UNIVERSITY OF …, priority 2021, published 2024)
